Assay results taken from publication PMC9862800, “Pharmaceutical Systems as a Strategy to Enhance the Stability of Oxytetracycline Hydrochloride Polymorphs in Solution” (Pharmaceutics, 2023).
Where a name gives a salt, the structure may show the parent alone.

Assays:
[1] = Apparent binding constant by UV-vis spectroscopy, least-squares model matrix, ligand NAC; assay type: physicochemical; details: aqueous solution; absorption at 355 nm; model matrix with least-squares linear transformation; OxyCl 0.068 mM, ligand 0.068 to 10 mM
Experimental: (§1) UV-vis data were used to calculate the association or binding constants (Ka) of OxyCl polymorphs with each ligand in an aqueous solution by different treatment analyses. The concentration of OxyCl was kept constant (0.068 mM), while the concentration of ligands increased from 0.068 to 10 mM.
Another model for measuring binding constants in data analysis utilizes least-squares analysis. The general approach is to use the linear regression method with a model matrix to find the binding association constant and then apply least-squares procedures to a linear transformation. The normal equations can be written in matrix form as:(2) M×P=Q where (3) M=[n∑x∑x∑x^2] (4) P=[a/b] (5) Q=[∑y/∑xy] then:(6) Ka=a/b
(§2) The association constant (Ka) for the formation of binary systems was estimated from changes in the intensity of the absorption at 355 nm with increasing ligand concentration using double reciprocal plots of Scott´s equation. […] However, deviations in straight lines were detected for the binary systems with NAC, which determined it was impossible to calculate an association constant assuming this model. To determine the Ka for OxyCl:NAC systems, a model matrix that applied least-squares techniques for the linear transformation of the data was used.

[2] = Chemical stability (degradation kinetics) in aqueous solution by HPLC; assay type: physicochemical; details: 25.0 ± 0.1 °C; for k0, intrinsic rate constant of degradation of the free polymorph: light protection, 30 µg/mL
Experimental: (§3) The kinetics of degradation of OxyCl polymorphs both in the presence and absence of ligands were investigated in the aqueous solutions and PBS.
(§4) Stock solutions of each solid form, as well as each ligand β-CD, ASP, and NAC, were prepared. These stock solutions were diluted to a final concentration of 30 µg/mL in water and PBS solutions to prepare the test solutions. The solutions containing ligands were prepared in the molar ratio of 1:1. These solutions were stored with light protection in order to diminish any photolytic effects in a water bath at a constant temperature of 25.0 ± 0.1 °C. Samples were withdrawn at appropriate time intervals and immediately analyzed by HPLC. The observed pseudo first-order rate constants (kobs) for the OxyCl polymorphs degradation were obtained from a linear regression analysis of the natural logarithm of the remaining solid forms plotted against time.
(§5) An HPLC-UV procedure under isocratic conditions was optimized. The results were expressed as the mean of the three determinations of samples prepared in duplicate. The HPLC system was an Agilent 1100 (Agilent Technologies, Waldbronn, Germany) equipped with a column Gemini C18 250 mm × 4.6 mm i.d. filled with 5 μm particles and a precolumn (guard cartridge SecurityGuard C18 4 mm × 3.0 mm i.d.) supplied by Phenomenex (Phenomenex Inc., Torrance, CA, USA). To avoid interference from degradation products, the UV detection was performed at a wavelength of 355 nm. The mobile phase was acetonitrile-water adjusted to a pH of 3 with phosphoric acid (20:80, v/v), and a flow rate of 1 mL/min was used. The column temperature was 25 °C and the injection volume was 50 µL.
It is important to mention that the results presented in these studies represent the first report about OxyCl polymorphs stability. The degradation curves of each OxyCl polymorph and its binary systems with β-CD, NAC, and ASP in an aqueous solution, under identical experimental conditions, were compared. […] The kinetic parameters, which are important in the pharmaceutical sector, were determined using a first-order reaction model that could be expressed by the following equation:ln Ct = […] − k t(8) where Ct and C0 were the concentrations of OxyCl at different reaction times and at the initial time, respectively, k was the degradation rate constant, and t was time. As a result, the slope of the fitted lines could be used to determine k.
(§6) Furthermore, linear regression analysis was used to estimate the intrinsic rate constant of degradation of the free OxyCl polymorphs (k0), the observed rate constant of OxyCl polymorphs in the presence of ligands (kobs), the half-life (t50), and the time of 10% degradation of the drug (t90).

[3] = Apparent binding constant by UV-vis spectroscopy, Scott's plot, ligand β-CD; assay type: physicochemical; details: aqueous solution; absorption at 355 nm; Scott's equation, 1:1 stoichiometry; OxyCl 0.068 mM, ligand 0.068 to 10 mM
Experimental: as §1
(§7) Ka values were determined by applying the formula of Benesi–Hildebrandt, adjusted by Scott utilized for a complex of 1:1 stoichiometry:(1) [L]/ΔAobs=[L]/ΔAc+1/Ka×ΔAc where [L] is the molar concentration of the ligand, ∆Aobs is the variation in the absorbance observed for the OxyCl solid form for a given [L], ΔAc is the variation in the absorbance between the complex and the free solid form.
as §2

[4] = Apparent binding constant by UV-vis spectroscopy, Scott's plot, ligand HIS; assay type: physicochemical; details: aqueous solution; absorption at 355 nm; Scott's equation, 1:1 stoichiometry; OxyCl 0.068 mM, ligand 0.068 to 10 mM
Experimental: as §1, §7, §2

[5] = Chemical stability (degradation kinetics) in PBS by HPLC; assay type: physicochemical; details: 25.0 ± 0.1 °C; for k0, intrinsic rate constant of degradation of the free polymorph: PBS (pH 7.4), light protection, 30 µg/mL
Experimental: as §3, §4, §5, §6
The degradation plots were linear, indicating apparent first-order kinetics. […] It was observed that OxyCl-I degraded at a faster rate than OxyCl-II and OxyCl-III, with a degradation rate of OxyCl-II < OxyCl-III < OxyCl-I.

[6] = Apparent binding constant by UV-vis spectroscopy, Scott's plot, ligand ASP; assay type: physicochemical; details: aqueous solution; absorption at 355 nm; Scott's equation, 1:1 stoichiometry; OxyCl 0.068 mM, ligand 0.068 to 10 mM
Experimental: as §1, §7, §2

[7] = parameters: method as in doi:10.1016/j.molliq.2017.12.006; details: incorporated into β-CD cavity; hydrolytic degradation; cited from earlier work

## CN(C)[C@@H]1C(O)=C(C(N)=O)C(=O)[C@@]2(O)C(O)=C3C(=O)c4c(O)cccc4[C@@](C)(O)[C@H]3[C@H](O)[C@@H]12 [OxyCl-I, Oxytetracycline hydrochloride]
[1]
  Apparent binding constants Ka, ligand NAC: 2042 M⁻¹
[2]
  t50, half-life: 68 h
  t90, time of 10% degradation of the drug: 10 h
  k0, intrinsic rate constant of degradation of the free polymorph: 0.0102 h⁻¹
[3]
  Apparent binding constants Ka, ligand β-CD: 3761 M⁻¹
[4]
  Apparent binding constants Ka, ligand HIS: 224 M⁻¹
[5]
  k0, intrinsic rate constant of degradation of the free polymorph: 0.009 h⁻¹
[5]; PBS
  t90, time of 10% degradation of the drug: 12 h
[5]; PBS, pH 7.4, PBS, read-out: t50, half-life (converted)
  half-life at 30 µg/mL: 81 h
[6]
  Apparent binding constants Ka, ligand ASP: 34,645 M^−1

## CN(C)[C@@H]1C(O)=C(C(N)=O)C(=O)[C@@]2(O)C(O)=C3C(=O)c4c(O)cccc4[C@@](C)(O)[C@H]3[C@H](O)[C@@H]12 [OxyCl-II, Oxytetracycline hydrochloride]
[1]
  Apparent binding constants Ka, ligand NAC: 4582 M⁻¹
[2]
  t50, half-life: 57 h
  t90, time of 10% degradation of the drug: 9 h
  k0, intrinsic rate constant of degradation of the free polymorph: 0.0121 h⁻¹
[3]
  Apparent binding constants Ka, ligand β-CD: 15,425 M^−1
[4]
  Apparent binding constants Ka, ligand HIS: 323 M⁻¹
[5]
  k0, intrinsic rate constant of degradation of the free polymorph: 0.005 h⁻¹
[5]; PBS
  t50, half-life: 139 h
  t90, time of 10% degradation of the drug: 21 h
[6]
  Apparent binding constants Ka, ligand ASP: 3063 M⁻¹

## CN(C)[C@@H]1C(O)=C(C(N)=O)C(=O)[C@@]2(O)C(O)=C3C(=O)c4c(O)cccc4[C@@](C)(O)[C@H]3[C@H](O)[C@@H]12 [OxyCl-III, Oxytetracycline hydrochloride]
[1]
  Apparent binding constants Ka, ligand NAC: 3897 M⁻¹
[2]
  t90, time of 10% degradation of the drug: 9 h
  k0, intrinsic rate constant of degradation of the free polymorph: 0.0116 h⁻¹
[2]; pH 4, aqueous solution, read-out: t50, half-life (converted)
  half-life at 30 µg/mL: 60 h
[3]
  Apparent binding constants Ka, ligand β-CD: 3607 M⁻¹
[4]
  Apparent binding constants Ka, ligand HIS: 8247 M⁻¹
[5]
  k0, intrinsic rate constant of degradation of the free polymorph: 0.007 h⁻¹
[5]; PBS
  t50, half-life: 102 h
  t90, time of 10% degradation of the drug: 15 h
[6]
  Apparent binding constants Ka, ligand ASP: 1771 M⁻¹

## NS(=O)(=O)c1cc2c(cc1Cl)NCNS2(=O)=O [hydrochlorothiazide]
[7]
  increase of half-life in aqueous solutions by β-CD: ~28 fold
